In patent US20230310352A1, “NOVEL COMPOSITIONS AND METHODS FOR THE TREATMENT OF LUNG FIBROSIS” (LAURENT PHARMACEUTICALS INC., priority 2020, published 2023):
“Also recorded” adds a separate entry of the source.

Columns and labels:
human lung microtissues = assay: Immunostaining of fibrotic markers (α-SMA, pro-collagen type 1) in TGF-β1 fibrosis-induced 3D lung microtissues; type: cell-based
Description: To confirm the findings of the NHLF cells, the effects of fenretinide administration was observed on a newly developed in vitro model arrays of 3D microtissues that are suspended over multiple flexible micropillars. Progression of lung fibrosis is characterized by stiffening of the membranous tissue that makes up the alveolar air sacs, caused by the accumulation of highly contractile and collagen-producing myofibroblasts. To model the physio-pathological characteristics of lung fibrosis in vitro, different experimental systems have been developed. Planar 2D culture-based assays offer multiparameter readout of fibrotic cellular markers, but they have very limited capacity to measure or reproduce tissue mechanics. In order to recapitulate dynamic changes in tissue mechanics during fibrogenesis, a newly validated membranous human lung microtissues array was used, that models key biomechanical events occurred during lung fibrogenesis, including progressive stiffening and contraction of alveolar tissue, decline in alveolar tissue compliance, and traction force-induced bronchial dilation. This new 3D array of membranous lung microtissues model of lung fibrosis had been validated using two FDA-approved antifibrosis drugs, pirfenidone and nintedanib. This model was further extended to larger lung tissue arrays, to mimic the traction on alveoli as a model of bronchiectasis. (Asmani M. et al, 2018, Nature Com, 9:2066)
The lung microtissue chip system used is based on bio-MEMS technology that can assemble 3D cell-populated submillimeter microtissues in arrays of polydimethylsiloxane (PDMS) microwells. In each microwell, human lung fibroblasts or epithelial cells spontaneously contract and assemble the matrix proteins, such as collagen, into microtissues that anchor on top of an array of micropillars. The flexible micropillars serve as in situ force sensors that can report the contractile force generated by the tissue. […]
These observations are further described in Table 1, which presents fenretinide induced reduction of alpha smooth muscle actin (α-SMA) and pro-collagen expression and contractile forces induced by TGF-β1 in lung microtissue in preventative and therapeutic treatment measured as a percentage.

[1] = test system: Normal human lung fibroblast cells (NHLF cells, ATCC CRL-7000); assay: COL1A1 mRNA transcript by qRT-PCR after TGF-β1 exposure in NHLF; type: cell-based; conditions: TGF-β1 2 ng/mL + fenretinide 1, 2, 3, 4 μM, 3 days
Description: NHLF cells were incubated for 3 days at 37° C. and treated with TGF-β1 (2 ng/mL) or TGF-β1 (2 ng/mL)+Fenretinide (1, 2, 3, 4 μM). At the end of the 3 day-treatment period, media was removed using a vacuum pump and total RNA was isolated using the TriReagent protocol (BioShop) and cDNA was obtained by reverse transcription using the SUPERSCRIPT® VILO®. COL1A1 transcript levels were determined by qRT-PCR using the Fast SyBR Master Mix and specific probes, and quantified following the ΔΔCT, normalized to PUM-1 expression as internal control. The experiments were performed in quadruplicate.

[2] = preventative treatment, 2 μM, 6 days
[3] = preventative treatment, 4 μM, 6 days
[4] = preventative, co-administered with TGF-β1 5 ng/ml for 6 days, 2 μM and 4 μM
[5] = therapeutic treatment, added day 3 to day 6, 2 μM
[6] = therapeutic treatment, added day 3 to day 6, 4 μM

## CC1=C(/C=C/C(C)=C/C=C/C(C)=C/C(=O)Nc2ccc(O)cc2)C(C)(C)CCC1 [fenretinide, 4-hydroxyphenyl retinamide]
Human lung microtissues; [2]
  pro-collagen, reduction of expression induced by TGF-β1, percentage change: 88.0%
  α-SMA, reduction of expression induced by TGF-β1, percentage change: 45.0%
Human lung microtissues; [3]
  pro-collagen, reduction of expression induced by TGF-β1, percentage change: 81.0%
  α-SMA, reduction of expression induced by TGF-β1, percentage change: 37.0%
Human lung microtissues; [4]
  expression of pro-collagen type 1 (fluorescent intensity): increasingly inhibited by increasing fenretinide concentrations
  expression of α-SMA (fluorescent intensity): increasingly inhibited by increasing fenretinide concentrations
Human lung microtissues; [5]
  pro-collagen, reduction of expression induced by TGF-β1, percentage change: 39.0%
  α-SMA, reduction of expression induced by TGF-β1, percentage change: 56.0%
Human lung microtissues; [6]
  pro-collagen, reduction of expression induced by TGF-β1, percentage change: 58.0%
  α-SMA, reduction of expression induced by TGF-β1, percentage change: 72.0%
[1]
  induction of fibrotic marker COL1A1 gene expression (qRT-PCR): attenuates, in a dose-dependent manner; also recorded: dose-dependent attenuation
